Experimental data reported in publication PMC11840788, “3,3′-Diindolylmethane (DIM): A Molecular Scaffold for Inhibition of WWP1 and WWP2, Members of the NEDD4 Family HECT E3 Ligases” (ACS Omega, 2025).
pIC50: −log10 of the molar value. Where “and” joins values, the source holds several entries; their conditions need not be identical. Equal values may be shown once.

Target: T1, WWP1 (His-tagged WWP1-L34H) (Homo sapiens, UniProt Q9H0M0)
T1 construct: WWP1- 2,3-linker-WW3-WW4-HECT (WWP1-L34H); made in house; host or cells: E. coli BL21-CodonPlus RP (plasmid pET32a-WWP1-L34H, gift of Dr Wenyu Wen)
Experiment: in vitro autoubiquitination assay (single shot and dose dependency), WWP1
Format: biochemical
Protocol: A single shot in vitro autoubiquitination assay was performed for I3C, DIM and each of the derivatives against WWP1 and WWP2 using a compound concentration of 1 mM (1% DMSO) (SI Figure S3). […] These active compounds were then subjected to a detailed dose dependency analysis leading to IC50 values. This strategy has previously been employed to screen other WWP1/WWP2 small molecule inhibitors as well as used to assess I3C inhibition toward NEDD4-1.[29],[32] In this way, compounds displaying a relative activity (RA) of less than 50% in the single shot assay were further screened for dose-dependency using a logarithmic concentration range from 10 nM to 1 mM (1% DMSO) (SI Figure S4). […] These were confirmed by counter assays to remove compounds possibly interacting with other enzymes in the assay or interfering with the assay directly (SI Table S1).
Cell lysate containing His-tagged WWP1-L34H or GST-tagged WWP2-FL proteins were incubated on either 96-well Clear Pierce glutathione or nickel-coated plates for 1 h. Reaction mixtures of either 3 ng/well GST-Uba1 and 15 ng/well UbcH7 or 10 ng/well His-Uba1 and 150 ng/well His-UbcH7 were incubated together in 25 mM Tris pH 8.0, 100 mM NaCl, 4 mM MgCl2 containing 60 ng/well FLAG-ubiquitin and 1.25 mM ATP for 40 min. A prior 1% BSA plate blocking step is required for nickel-coated plates. After plate washing, 2 μL of the compound was added at the desired concentration (1% DMSO) followed by 18 μL of the reaction mixture. This was then incubated for 2 h with 0 and 100% controls before 100 μL of anti-FLAG M2-Peroxidase HRP (1:10,000 PBST) was added to each well and incubated for 1 h. Finally, 100 μL of 1 × TMB substrate solution (Invitrogen) was added to each well and incubated for up to 10 min until sufficient blue color change was observed. To stop the reaction, 100 μL of 1 M HCl was added. For the counter assay, 3 ng/well GST-Uba1 and 200 ng/well UbcH7 were incubated with the other reaction mixture components for 1 h before incubating onto plates for a further 1 h. All other steps were followed. The plates were washed three times with PBST (and 15 mM Imidazole) between each step. Quantification was measured by absorbance read at 450 nm. All assay optimizations were as previously reported.[32] IC50 nonlinear regression curves were calculated in GraphPad v10.2 (Prism). […]
Auto-ubiquitination Assay
Cell lysate containing His-tagged WWP1-L34H or GST-tagged WWP2-FL proteins were incubated on either 96-well Clear Pierce glutathione 2 or nickel-coated plates for 1 hour. Reaction mixtures of either 3 ng/well GST-Uba1 and 15 ng/well UbcH7 or 10 ng/well His-Uba1 and 150 ng/well His-UbcH7 were incubated together in 25 mM Tris pH 8.0, 100 mM NaCl, 4 mM MgCl2 containing 60 ng/well FLAG-ubiquitin and 1.25 mM ATP for 40 minutes. A prior 1 % BSA plate blocking step is required for nickel-coated plates. After plate washing, 2 μL of the compound was added at the desired concentration (1 % DMSO) followed by 18 μL of the reaction mixture. This was then incubated for 2 hours with 0% and 100% controls before 100 μL of anti-FLAG M2-Peroxidase HRP (1: 10,000 PBST) was added to each well and incubated for 1 hour.
Finally, 100 μL of 1 × TMB substrate solution (Invitrogen) was added to each well and […]
incubated for up to 10 minutes until sufficient blue colour change was observed. To stop the reaction, 100 μL of 1 M HCl was added. For the counter assay, 3 ng/well GST-Uba1 and 200 ng/well UbcH7 were incubated with the other reaction mixture components for 1 hour before incubating onto plates for a further 1 hour. All other steps were followed.
The plates were washed three times with PBST (and 15 mM Imidazole) between each step. Quantification was measured by absorbance read at 450 nm. All assay optimisations have been previously reported by Watt and colleagues3.
Relative activity (RA) was determined by comparing the autoubiquitination of the WWP ligases in the presence of each compound, i.e TMB absorbance (450 nm), to the […]

T1 sequence (Q9H0M0 415-922, stated change not applied): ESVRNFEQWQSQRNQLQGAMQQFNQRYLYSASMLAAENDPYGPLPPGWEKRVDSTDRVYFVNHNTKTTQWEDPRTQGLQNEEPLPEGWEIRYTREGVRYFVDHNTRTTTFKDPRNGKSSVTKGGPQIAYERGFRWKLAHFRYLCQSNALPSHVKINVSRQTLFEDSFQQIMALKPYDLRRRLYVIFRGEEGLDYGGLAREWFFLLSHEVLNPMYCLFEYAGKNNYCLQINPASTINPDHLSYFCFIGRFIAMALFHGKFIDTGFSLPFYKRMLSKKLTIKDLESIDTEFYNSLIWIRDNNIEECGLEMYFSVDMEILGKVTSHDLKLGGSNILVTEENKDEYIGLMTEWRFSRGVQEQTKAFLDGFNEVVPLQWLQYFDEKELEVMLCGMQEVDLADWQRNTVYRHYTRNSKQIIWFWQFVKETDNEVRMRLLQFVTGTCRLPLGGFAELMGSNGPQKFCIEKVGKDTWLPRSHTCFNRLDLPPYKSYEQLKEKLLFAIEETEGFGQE

OCc1c[nH]c2ccccc12 [Compound I3C, Indole-3-carbinol, reference compound]
inhibition of WWP1 (in words) (autoubiquitination assay): displayed inhibition
pIC50 (nonlinear regression of RA against log concentration, 1 mM to 10 nM, 1% DMSO): ~3.00 and 3.00
WWP1 RA (%) relative activity (single shot, compound at 1 mM (1% DMSO), standardized to 0 and 100% controls): 48.2 ± 8.6% and 48.2%
